Test results as given in PubChem BioAssay (NCI).
Values joined by “and” are separate entries in the source; they are usually repeats but may differ in a detail not shown here. Identical values can stand only once.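 The compound was tested at five concentrations on cells cultured in 96-well plates, with a 48-hour exposure period. At the GI50, growth is halved. The concentration for full growth arrest is given as TGI.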

Experiments:
Test in all cases: NCI anticancer screen, dose series, 48 h
SW-620 colon = tested on: SW-620 colon
M14 melanoma = tested on: M14 melanoma
MDA-MB-435 = tested on: MDA-MB-435
SN12C renal = tested on: SN12C renal
A549 NSCLC = tested on: A549 NSCLC
RXF 393 renal = tested on: RXF 393 renal
COLO 205 colon = tested on: COLO 205 colon
HL-60(TB) leukemia = tested on: HL-60(TB) leukemia
HCT-116 colon = tested on: HCT-116 colon
SK-MEL-5 melanoma = tested on: SK-MEL-5 melanoma

SMILES | TGI (SW-620 colon) | TGI (M14 melanoma) [µM] | TGI (MDA-MB-435) [µM] | TGI (SN12C renal) [µM] | TGI (A549 NSCLC) | TGI (RXF 393 renal) | TGI (COLO 205 colon) | TGI (HL-60(TB) leukemia) [µM] | TGI (HCT-116 colon) [µM] | TGI (SK-MEL-5 melanoma) [µM] | GI50 (SW-620 colon) [µM] | GI50 (SN12C renal) [µM] | GI50 (A549 NSCLC) [µM] | GI50 (RXF 393 renal) [µM] | GI50 (COLO 205 colon) [µM] | GI50 (HL-60(TB) leukemia) [µM] | GI50 (HCT-116 colon) [µM] | GI50 (SK-MEL-5 melanoma) [µM]
COC(=O)NN(C(=O)OC)c1c(-c2ccccc2)nc(SC)n1N | > 100 µM | > 100 | > 100 | > 100 | > 100 µM | > 100 µM | > 100 µM | > 100 | > 100 | > 100 |  |  |  |  |  |  |  | 
CCOC1CC(=O)c2c(Br)sc(Br)c21 (stereo not given) | 47.1 µM | 36.2 | 33.6 | 58.4 | 95.1 µM | 35.5 µM | 38.4 µM | 48.6 | 38.4 | > 100 |  |  |  |  |  |  |  | 
O=[N+]([O-])C(=C(N1CCCCC1)N1CCCCC1)/C(Cl)=C(\Cl)Br | 38.5 µM | 59.1 | 61.7 | > 100 | > 100 µM | 62.9 µM | 38.7 µM | 37.9 | 41.7 | 46 |  |  |  |  |  |  |  | 
O=C(NC(Cc1c[nH]c2ccccc12)C(=O)O)/C(=C/c1ccccc1O)NC(=O)c1ccccc1 (stereo not given) | > 100 µM | > 100 | > 100 | 63.9 | > 100 µM | > 100 µM | > 100 µM | > 100 | > 100 | > 100 |  |  |  |  |  |  |  | 
Cc1cn2c(/C=C3/C(=O)Nc4cccc(Cl)c43)c(Cl)nc2s1 | > 100 µM | > 100 | > 100 | > 100 | > 100 µM | 87 µM |  | > 100 | > 100 |  |  |  |  |  |  |  |  | 
COc1ccc(CC(CO)NC(=O)OCc2ccccc2)cc1Oc1ccc(CC(CO)NC(=O)OCc2ccccc2)cc1 (stereo not given) | > 100 µM | 23.3 | > 100 | 39.3 | 27.2 µM |  | 64.9 µM |  | 32.3 | > 100 |  |  |  |  |  |  |  | 
O=C1CCC(=Nc2ccc(Cl)cc2)N1C(=O)COc1ccc(OCC(=O)N2C(=O)CSC2=Nc2ccc(Cl)cc2)cc1 | > 100 µM | > 100 | > 100 | > 100 | > 100 µM | > 100 µM | > 100 µM | > 100 | > 100 | > 100 |  |  |  |  |  |  |  | 
Nn1c(CCCCCCCCc2nnc(COc3c(O)ccc4ccccc34)n2N)nnc1COc1c(O)ccc2ccccc12 | > 100 µM | > 100 | > 100 | > 100 | > 100 µM | > 100 µM | > 100 µM |  | > 100 | > 100 |  |  |  |  |  |  |  | 
CCCCOC(C)(C)/C=C/C(O)[C@](C)(O)[C@H]1[C@H](O)C[C@@]2(C)[C@@H]3CCc4c(cc(OC5OC(CO)C(O)C(O)C5O)c(O)c4C)C3(C)C(=O)C[C@]12C (stereo not given in full) | > 100 µM | > 100 | > 100 | > 100 | > 100 µM | > 100 µM | > 100 µM |  | > 100 | > 100 |  |  |  |  |  |  |  | 
Cc1cc(C)c2c(=O)n(CN3CC4Nc5ccccc5C4C3)sc2n1 (stereo not given) | 63.7 µM | 63.1 | 42.2 | > 100 | > 100 µM | 40.4 µM | 71.5 µM | 63.2 | 43.7 | > 100 |  |  |  |  |  |  |  | 
C=C1C(O)C2(O)OCC34C(CC5C(C)=CC(=O)C(O)C5(C)C23)OC(=O)C(OC(=O)C/C=C(\C)CCCCC)C14 (stereo not given) | 0.0158 µM and 0.119 µM and 0.026 µM | 0.00141 | 0.00221 |  | 0.0233 µM and 0.0698 µM and 0.0535 µM | 0.00351 µM and 0.0245 µM | 0.00812 µM and 0.0206 µM and 0.0272 µM |  |  | < 0.001 | < 0.001 | 0.00157 | 0.00137 | < 0.001 | 0.00123 | < 0.001 | < 0.001 | < 0.001
OC[C@@H](O)[C@H]1NC[C@@H](O)[C@H]1O | > 100 µM | > 100 | > 100 | > 100 | > 100 µM | > 100 µM | > 100 µM | > 100 | > 100 | > 100 |  |  |  |  |  |  |  | 
CC(=O)N/N=C1/NN(C(C)=O)C2(S1)C(=O)Nc1ccc(Br)cc12 (stereo not given) |  | > 100 | > 100 | > 100 | > 100 µM | > 100 µM |  | > 100 | > 100 | > 100 |  |  |  |  |  |  |  | 
Cc1ccc(S(=O)(=O)Oc2cc(N)c3c(n2)CCC3)cc1 | > 100 µM | > 100 | > 100 | > 100 | > 100 µM | > 100 µM | > 100 µM | > 100 | > 100 | > 100 |  |  |  |  |  |  |  | 
COP(=O)(O)/C=C/C(NC(=O)C(Cl)(Cl)Cl)c1ccccc1 (stereo not given) | > 100 µM | > 100 | > 100 | > 100 | > 100 µM | > 100 µM | > 100 µM | > 100 | > 100 | > 100 |  |  |  |  |  |  |  | 
CCC1=CCC23C(=O)C=CC(=O)C2(C1)C(=O)c1cccc(OC)c1C3=O (stereo not given) | 34 µM | 30.4 | 30.8 | 35.2 | 51.5 µM | 21 µM | 28.4 µM | 7.36 | 30.4 | 31.5 |  |  |  |  |  |  |  | 
N#Cc1nc(-c2cc([N+](=O)[O-])cc([N+](=O)[O-])c2)oc1N | > 10 µM | > 10 | > 10 | > 10 | > 10 µM | > 10 µM | > 10 µM | > 10 | > 10 | > 10 |  |  |  |  |  |  |  | 
Cc1cc2c(C)cc(=O)[nH]c2cc1N | > 100 µM | > 100 | > 100 | > 100 | > 100 µM | > 100 µM | > 100 µM |  | > 100 | > 100 |  |  |  |  |  |  |  | 
O=C1c2ccccc2CN1c1ccc(O)cc1 | > 100 µM | > 100 | > 100 | > 100 | > 100 µM | > 100 µM | > 100 µM | > 100 | > 100 | > 100 |  |  |  |  |  |  |  | 
CC(C)(C)C1=Cc2cc3cc(C(C)(C)C)[nH]c(=O)c3cc2S(=O)(=O)N1 | 44.8 µM | 29.7 |  | > 100 | 75.3 µM |  | 39.9 µM | 43.1 | 42.8 |  |  |  |  |  |  |  |  | 
COc1ccc(Nc2nc3ccc(C(F)(F)F)cc3nc2C(=O)O)cc1OC | > 100 µM |  | 82.5 | > 100 |  | > 100 µM | > 100 µM | 64.1 | 80 | 48.3 |  |  |  |  |  |  |  | 
CCC(C(=O)O)c1ccc(OCc2ccccc2)cc1 (stereo not given) | > 100 µM | > 100 |  | > 100 | > 100 µM | > 100 µM | > 100 µM | > 100 | > 100 | > 100 |  |  |  |  |  |  |  | 
